According to PMC11857971, “^11C-Labeling of a Flavanone Extracted from a South American Native Species for Evaluation of Its Interaction with GSK-3β” (Molecules, 2025):

Biological target: T1, GSK-3β (Homo sapiens, UniProt P49841)
T1 construct: gene GSK3B
Experiment: Kinase-Glo luminescent kinase assay, recombinant human GSK-3β, dose-response
Type: biochemical

T1 sequence (P49841 whole entry): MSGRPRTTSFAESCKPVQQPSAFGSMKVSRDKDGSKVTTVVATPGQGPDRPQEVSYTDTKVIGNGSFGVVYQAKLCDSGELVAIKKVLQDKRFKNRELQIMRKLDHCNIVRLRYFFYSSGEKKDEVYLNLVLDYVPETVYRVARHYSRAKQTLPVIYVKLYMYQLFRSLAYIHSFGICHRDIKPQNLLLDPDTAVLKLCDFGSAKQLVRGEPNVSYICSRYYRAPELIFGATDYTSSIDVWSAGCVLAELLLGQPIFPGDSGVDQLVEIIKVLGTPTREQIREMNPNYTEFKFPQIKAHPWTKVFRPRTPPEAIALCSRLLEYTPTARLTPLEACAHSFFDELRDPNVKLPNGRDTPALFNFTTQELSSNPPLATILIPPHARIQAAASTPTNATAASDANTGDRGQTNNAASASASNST

| Compound | IC50 |
| --- | --- |
| COc1cc(O)c2c(c1CC=C(C)C)O[C@H](c1ccccc1)CC2=O [FLA, (S)-5-hidroxy-7-methoxy-8-(3-methylbut-2-en-1-yl)-2-phenylcroman-4-one] | 16.1 ± 0.6 µM |
| CC(C)=CCc1c(O)cc(O)c2c1O[C@H](c1ccccc1)CC2=O [glabranin, (S)-5,7-dihydroxy-8-(3-methylbut-2-en-1-yl)-2-phenylchroman-4-one] | 44.8 ± 4 µM |
